In article PMC11995724, “Antibiotic target discovery by integrated phenotypic and activity-based profiling of electrophilic fragments” (Cell chemical biology, 2025):

Assay: in vitro
Conditions: human, hek293t cells

SMILES	viability at 48 h, 25 µM [%]
C=CC(=O)N1CCC(C(=O)N[C@H](C)c2ccc3c(c2)CCCC3)CC1 [3-P12, 1-(prop-2-enoyl)-N-[(1R)-1-(5,6,7,8-tetrahydronaphthalen-2-yl)ethyl]piperidine-4-carboxamide]	58
C=CC(=O)NC1(Cc2ccccc2)CC1 [3-P13, N-(1-benzylcyclopropyl)prop-2-enamide]	61.5
C=CC(=O)N1Cc2cnn(C)c2C1 [3-P14, 1-{1-methyl-1H,4H,5H,6H-pyrrolo[3,4-c]pyrazol-5-yl}prop-2-en-1-one]	87.3
C=CC(=O)NCc1oc(CC)nc1C [3-P15, N-[(2-ethyl-4-methyl-1,3-oxazol-5-yl)methyl]prop-2-enamide]	74.7
C=CC(=O)N(CC)Cc1nc2ccsc2c(=O)[nH]1 [3-P16, N-ethyl-N-({4-oxo-3H,4H-thieno[3,2-d]pyrimidin-2-yl}methyl)prop-2-enamide]	78.2
C=CC(=O)NC(C)c1ccc(-n2nc(C)cc2C)c(F)c1 (stereo not drawn) [3-P17, N-{1-[4-(3,5-dimethyl-1H-pyrazol-1-yl)-3-fluorophenyl]ethyl}prop-2-enamide]	76.1
C=CC(=O)NC1CS(=O)(=O)C1 [3-P18, N-(1,1-dioxo-1lambda6-thietan-3-yl)prop-2-enamide]	105
C=CC(=O)NCc1ccccc1-n1nc(C)cc1C [3-P19, N-{[2-(3,5-dimethyl-1H-pyrazol-1-yl)phenyl]methyl}prop-2-enamide]	59.1
C=CC(=O)N1CCN(c2nccn(C)c2=O)CC1 [3-P20, 1-methyl-3-[4-(prop-2-enoyl)piperazin-1-yl]-1,2-dihydropyrazin-2-one]	181
C=CC(=O)N1CCC(n2nc(C)nc2O)CC1 [3-P21, 1-[4-(5-hydroxy-3-methyl-1H-1,2,4-triazol-1-yl)piperidin-1-yl]prop-2-en-1-one]	49.8
C=CC(=O)NCc1ccc(-c2noc(C)n2)cc1 [3-P22, N-{[4-(5-methyl-1,2,4-oxadiazol-3-yl)phenyl]methyl}prop-2-enamide]	94.1
Cc1ccc(N(CCC#N)C(=O)CCl)cc1C [4-A03, 2-chloro-N-(2-cyanoethyl)-N-(3,4-dimethylphenyl)acetamide]	0.265
CC(Cl)C(=O)Nc1ccc(F)c(Cl)c1 (stereo not drawn) [4-A04, 2-chloro-N-(3-chloro-4-fluorophenyl)propanamide]	56.5
O=C(CCl)NCc1cc([N+](=O)[O-])ccc1O [4-A05, 2-chloro-N-[(2-hydroxy-5-nitrophenyl)methyl]acetamide]	1.29
O=C(CCl)Nc1sc2c(c1C(=O)c1ccccc1)CCCC2 [4-A06, N-(3-benzoyl-4,5,6,7-tetrahydro-1-benzothiophen-2-yl)-2-chloroacetamide]	0.213
Cc1ccc(NC(=O)CCl)c([N+](=O)[O-])c1 [4-A07, 2-chloro-N-(4-methyl-2-nitrophenyl)acetamide]	2.99
O=C(CCl)NC(c1ccccc1)c1ccco1 (stereo not drawn) [4-A08, 2-chloro-N-[(furan-2-yl)(phenyl)methyl]acetamide]	2.75
Cc1ccc(NC(=O)CCl)cc1S(=O)(=O)N(C)C [4-A09, 2-chloro-N-[3-(dimethylsulfamoyl)-4-methylphenyl]acetamide]	-0.165
O=C(CCl)NCCN1C(=O)SC(=Cc2ccccc2F)C1=O [4-A10, 2-chloro-N-(2-{5-[(2-fluorophenyl)methylidene]-2,4-dioxo-1,3-thiazolidin-3-yl}ethyl)acetamide]	-0.106
COc1ccc(-c2csc(NC(=O)CCl)n2)c(O)c1 [4-A11, 2-chloro-N-[4-(2-hydroxy-4-methoxyphenyl)-1,3-thiazol-2-yl]acetamide]	-0.257
CC(Cl)C(=O)Nc1ccc(S(=O)(=O)N2CCCCC2)cc1 (stereo not drawn) [4-A12, 2-chloro-N-[4-(piperidine-1-sulfonyl)phenyl]propanamide]	64.8
